Measurements published in PubChem BioAssay (NCI).
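How tested: cells in 96-well plates exposed to compound for 48 hours at five concentrations. At the GI50, growth is halved. TGI: total growth inhibition.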

Tests used:
Assay in all cases: DTP human tumour cell line panel, 48 h; in the data active = GI50 below about 0.43 µM; inactive = the rest
UO-31 renal = test system: UO-31 renal
OVCAR-5 ovarian = test system: OVCAR-5 ovarian
SW-620 colon = test system: SW-620 colon
CCRF-CEM leukemia = test system: CCRF-CEM leukemia
IGROV1 ovarian = test system: IGROV1 ovarian
ACHN renal = test system: ACHN renal
HCT-15 colon = test system: HCT-15 colon
U251 CNS = test system: U251 CNS
OVCAR-8 ovarian = test system: OVCAR-8 ovarian
PC-3 prostate = test system: PC-3 prostate
MCF7 breast = test system: MCF7 breast
NCI-H522 lung = test system: NCI-H522 lung
SK-MEL-28 melanoma = test system: SK-MEL-28 melanoma
TK-10 renal = test system: TK-10 renal
SF-539 CNS = test system: SF-539 CNS
SK-OV-3 ovarian = test system: SK-OV-3 ovarian
SNB-19 CNS = test system: SNB-19 CNS
HT29 colon = test system: HT29 colon
KM12 colon = test system: KM12 colon
SN12C renal = test system: SN12C renal
LOX IMVI melanoma = test system: LOX IMVI melanoma
MALME-3M melanoma = test system: MALME-3M melanoma
NCI-H460 lung = test system: NCI-H460 lung
RPMI-8226 leukemia = test system: RPMI-8226 leukemia
M14 melanoma = test system: M14 melanoma
CAKI-1 renal = test system: CAKI-1 renal
HL-60(TB) leukemia = test system: HL-60(TB) leukemia
NCI-H226 lung = test system: NCI-H226 lung

COc1ncc(-c2nc3c(n2C(C)C)[C@H](c2ccc(Cl)cc2)N(c2cc(Cl)cn(C)c2=O)C3=O)c(OC)n1
80.4 µM: TGI (NCI-H226 lung)
59.3 µM: TGI (MALME-3M melanoma)
88.8 µM: TGI (UO-31 renal)
99.7 µM: TGI (HL-60(TB) leukemia)
> 100 µM: TGI (OVCAR-5 ovarian) | TGI (SW-620 colon) | TGI (CCRF-CEM leukemia) | TGI (IGROV1 ovarian) | TGI (ACHN renal) | TGI (HCT-15 colon) | TGI (U251 CNS) | TGI (OVCAR-8 ovarian) | TGI (PC-3 prostate) | TGI (MCF7 breast) | TGI (NCI-H522 lung) | TGI (SK-MEL-28 melanoma) | TGI (TK-10 renal) | TGI (SF-539 CNS) | TGI (SK-OV-3 ovarian) | TGI (SNB-19 CNS) | TGI (HT29 colon) | TGI (KM12 colon) | TGI (SN12C renal) | TGI (LOX IMVI melanoma) | TGI (NCI-H460 lung) | TGI (M14 melanoma) | TGI (CAKI-1 renal)
inactive: GI50 (UO-31 renal) 5.83 µM | GI50 (OVCAR-5 ovarian) > 100 µM | GI50 (SW-620 colon) 63.7 µM | GI50 (CCRF-CEM leukemia) 30.9 µM | GI50 (IGROV1 ovarian) 22.1 µM | GI50 (ACHN renal) 15.2 µM | GI50 (HCT-15 colon) 34.5 µM | GI50 (U251 CNS) 40.5 µM | GI50 (OVCAR-8 ovarian) 59.7 µM | GI50 (PC-3 prostate) 20.2 µM | GI50 (MCF7 breast) 17.3 µM | GI50 (NCI-H522 lung) 69.2 µM | GI50 (SK-MEL-28 melanoma) 42.2 µM | GI50 (TK-10 renal) 36.8 µM | GI50 (SF-539 CNS) 64.5 µM | GI50 (SK-OV-3 ovarian) 40.4 µM | GI50 (SNB-19 CNS) 61.5 µM | GI50 (HT29 colon) 41.7 µM | GI50 (KM12 colon) 41.2 µM | GI50 (SN12C renal) 49.8 µM | GI50 (LOX IMVI melanoma) 11.2 µM | GI50 (MALME-3M melanoma) 14.6 µM | GI50 (NCI-H460 lung) 22.8 µM | GI50 (RPMI-8226 leukemia) 24.5 µM | GI50 (M14 melanoma) 36.8 µM | GI50 (CAKI-1 renal) 26.3 µM | GI50 (HL-60(TB) leukemia) 31.2 µM | GI50 (NCI-H226 lung) 15.1 µM
87.5 µM: TGI (RPMI-8226 leukemia)
